# Source: US11293024B2, “Antisense antibacterial compounds and methods” (priority 2014, dated 2022)
# System: existing P. aeruginosa PAO1 biofilm
# Test: Biofilm reduction in MBEC plate (crystal violet)
# Format: cell-based, Pseudomonas aeruginosa
# Conditions: at 10 and 5 μM; 2 μg/mL PMBN; 48 hour biofilm
# Procedure: P. aeruginosa PAO1 (5×10^5 cfu/mL) was grown in an MBEC plate for 24 hours. At 24 hours, the pegs were moved to a new 96-well plate containing fresh MHII media and either scrambled, RpsJ, or AcpP PPMO at the indicated concentrations. All wells containing PPMOs (including Scrambled) contained 2 μg/mL of PMBN. The pegs were again moved to new plates with or without PPMOs at 32 and 40 hours. Pegs were processed for crystal violet or visualized with microscopy at 48 hours. […] FIGS. 7B-7D: Spinning Disk confocal microscopy images of 48 hour biofilm treated with (FIG. 7B) 10 μM Scr PPMO #42, (FIG. 7C) 2.5 μM AcpP PPMO #35, (FIG. 7D) 10 μM AcpP PPMO #35. Green channel is PAO1 GFP; Red channel is biofilm stained with 200 μg/mL of Concanavalin A, Alexafluor 647 conjugate.
# Pseudomonas aeruginosa Biofilm Reduction in MBEC Plate Protocol
# • 1. 10 mL of MH is inoculated with a single colony and incubated at 37° C. and ˜250 rpm for about 5 hours. • 2. The sample is centrifuged for 10 minutes at ˜4000 rpm at 4° C., the supernatant decanted and the pellet resuspended in 10 mL of 150 mM NaCl or PBS. This step is repeated to wash the pellet 3 times. • 3. […] The OD600 of the sample is taken and cfu/mL is calculated. […]
# 1. […] The final OD570 of the 10× dilution of solution should be approximately 0.500 absorbance. […]
# 2. OD reading: The OD570 for the 96-well plate from step 1e is determined. […]
substance,measurement,value
"PPMO #14: RpsJ PMO GCATTTGACCT, 5′ TEG, 3′ (RXR)4XB CPP",reduction of existing biofilm (crystal violet),statistically significant reduction of biofilm
